Source: patent US9533964B2, “Piperazine substituted bridged spiro[2.4]heptane derivatives as ALX receptor agonists” (Actelion Pharmaceuticals Ltd, priority 2013, dated 2017)

Tests used:
[1] = target: T1, recombinant human ALX receptor (Homo sapiens, UniProt P25090); test: Intracellular calcium measurements (FLIPR), ALX receptor agonistic activity; assay type: cell-based; conditions: HEK293-hALXR-Gα16 cells; median of n replications; normalized to WKYMVm 10 nM; read-out: EC50, agonistic activity with respect to the ALX receptor
T1 construct: expressed in transfected cells; host or cells: HEK293 (HEK293-hALXR-Gα16)
T1 sequence (P25090 1-351): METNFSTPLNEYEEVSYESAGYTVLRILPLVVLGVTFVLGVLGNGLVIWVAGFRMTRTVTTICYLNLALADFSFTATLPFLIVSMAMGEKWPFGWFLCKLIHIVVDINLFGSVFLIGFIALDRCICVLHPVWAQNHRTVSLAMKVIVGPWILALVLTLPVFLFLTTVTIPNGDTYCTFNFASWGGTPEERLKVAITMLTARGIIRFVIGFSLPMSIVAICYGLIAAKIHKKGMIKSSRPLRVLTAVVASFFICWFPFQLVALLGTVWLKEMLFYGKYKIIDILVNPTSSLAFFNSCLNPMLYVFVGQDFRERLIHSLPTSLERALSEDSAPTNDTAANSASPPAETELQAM
Method: The ALX receptor agonistic activity of the compounds of formula (I) is determined in accordance with the following experimental method.
Intracellular Calcium Measurements:
Cells expressing recombinant human ALX receptor and the G-protein Gα16 (HEK293-hALXR-Gα16) were grown to 80% confluency in Growing Medium (GM). Cells were detached from culture dishes with a cell dissociation buffer (Invitrogen, 13151-014), and collected by centrifugation at 1′000 rpm at rt for 5 min in Assay Buffer (AB) (equal parts of Hank's BSS (Gibco, 14065-049) and DMEM without Phenol Red (Gibco, 11880-028)). After 60 min incubation at 37° C. under 5% CO2 in AB supplemented with 1 μM Fluo-4 (AM) (Invitrogen, F14202) and 20 mM HEPES (Gibco, 15630-056), the cells were washed and resuspended in AB. They were then seeded onto 384-well FLIPR assay plates (Greiner, 781091) at 50′000 cells in 70 μl per well and sedimented by centrifugation at 1′000 rpm for 1 min. Stock solutions of test compounds were made up at a concentration of 10 mM in DMSO, and serially diluted in AB to concentrations required for activation dose response curves. WKYMVm (Phoenix Peptides) was used as a reference agonist. […] Changes in fluorescence were monitored before and after the addition of test compounds at lex=488 nm and lem=540 nm. […]

[2] = Plasma stability assay, rat serum; assay type: in vitro ADME
Method: (§1) Rat or human serum adjusted at pH 7.4 with lactic acid or ammonium hydroxide, were equilibrated at 37° C. under orbital shaking in an incubator containing 5% CO2. The reaction was initiated by the addition of 1 μM of compounds (1.5 μl of 1 mM stock solution in DMSO in 1498.5 μl of plasma). At 0.01, 0.25, 0.5, 1, 2, 3, 4 and 6 h, aliquots (100 μl) were transferred in a 96 well plate containing 300 μl MeOH placed on ice to stop the reaction. After vortexing for 20 min at 1400 rpm on an Eppendorf thermomixer, the plates were centrifuged at 3220 g for 20 min at 4° C. and the supernatants were analyzed with LC-MS/MS. Calibration samples in plasma containing 0.1% of dichlorvos were prepared and analysed in parallel to the incubation samples to allow the quantification. Half lives (T1/2) in hours were then calculated. In addition the remaining concentration of the respective compound after time Tlast relative to the concentration at the beginning has been determined (table 2).

[3] = Plasma stability assay, human serum; assay type: in vitro ADME
Method: as §1

- EC50 [1]: 9.4 nM
- remaining concentration at Tlast ([2]; Tlast 6 h, 1 μM, 37° C.): 100%
- half-life at 1 μM ([2]; pH 7.4, 37° C.): > 6 h
- remaining concentration at Tlast ([3]; Tlast 6 h, 1 μM, 37° C.): 82%
- half-life at 1 μM ([3]; pH 7.4, 37° C.): > 6 h
Structure (SMILES): Cc1ccc(C2(NC(=O)C3C(C(=O)NCCN4CCN(C)CC4)C4CCC3C43CC3)CC2)cc1 [Example 1, (5R)-N^5-(1-(p-tolyl)cyclopropyl)-(6R)-N^6-(2-(4-methylpiperazin-1-yl)ethyl)-(4S,7R)-[4,7-ethylene-spiro[2.4]heptane]-5,6-dicarboxamide]
